Article PMC11428031, “Discovery of selective LATS inhibitors via scaffold hopping: enhancing drug-likeness and kinase selectivity for potential applications in regenerative medicine” (RSC Medicinal Chemistry, 2024)
Converted amounts (≈) assume the structure as drawn.

Legend:
in vitro [1] = conditions: mouse, liver microsomes
in vitro [2] = conditions: human, liver microsomes
physchem = conditions: D2O (deuterium oxide)
[3] = Liver microsomal phase I stability, human; conditions: for HLM phase I stability (% remaining after 30 min): human liver microsomes 0.5 mg/mL, 1 μM compound, NADPH, 37 °C, mean ± SD, n=3; for Stability in human liver microsomes relative to 1, Truli: experimental values of Table 4
321 protein kinases = tested on: 321 protein kinases; design: method as in PMID 35231442; conditions: out of 321 tested protein kinases; cited from earlier work
[4] = In vivo pharmacokinetics in male mice; conditions: for Ft: IP; for half-life: T1/2, male mice; for clearance: CL
Description: All animal procedures were performed in accordance with the Guidelines for Care and Use of Laboratory Animals of Korea Research Institute of Chemical Technology and approved by the Animal Ethics Committee of Korea Research Institute of Chemical Technology.

[5] = Liver microsomal phase I stability, mouse; conditions: mouse liver microsomes 0.5 mg/mL, 1 μM compound, NADPH, 37 °C, mean ± SD, n=3
468 kinases = assay: KINOMEscan scanMAX kinase profiling, selectivity over the panel; format: binding; conditions: 100 nM, of 403 non-mutant kinases
DMPK = biological target: T1, DMPK (Homo sapiens, UniProt Q09013); assay: KINOMEscan scanMAX binding, DMPK; conditions: 100 nM compound; lower = stronger interaction
T1 sequence (Q09013 1-629): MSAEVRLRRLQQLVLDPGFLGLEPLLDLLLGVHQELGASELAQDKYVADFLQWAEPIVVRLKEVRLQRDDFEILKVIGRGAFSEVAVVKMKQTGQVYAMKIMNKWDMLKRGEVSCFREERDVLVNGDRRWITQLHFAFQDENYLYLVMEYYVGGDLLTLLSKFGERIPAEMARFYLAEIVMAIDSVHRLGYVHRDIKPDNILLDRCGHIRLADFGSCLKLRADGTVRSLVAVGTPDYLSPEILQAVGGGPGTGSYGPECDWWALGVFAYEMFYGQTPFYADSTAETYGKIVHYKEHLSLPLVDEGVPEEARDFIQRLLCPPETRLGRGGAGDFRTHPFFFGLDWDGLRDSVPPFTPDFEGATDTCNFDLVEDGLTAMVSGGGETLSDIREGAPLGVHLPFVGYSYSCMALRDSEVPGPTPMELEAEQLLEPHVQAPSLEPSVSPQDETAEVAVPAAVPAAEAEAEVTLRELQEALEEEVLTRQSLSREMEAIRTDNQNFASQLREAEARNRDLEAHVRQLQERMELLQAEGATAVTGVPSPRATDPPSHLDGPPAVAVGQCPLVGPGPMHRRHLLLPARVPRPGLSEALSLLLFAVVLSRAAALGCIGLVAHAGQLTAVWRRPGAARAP

YSK4 = biological target: T2, YSK4 (Homo sapiens, UniProt Q56UN5); assay: KINOMEscan scanMAX binding, YSK4; conditions: 100 nM compound; lower = stronger interaction
T2 sequence (Q56UN5 1-1328): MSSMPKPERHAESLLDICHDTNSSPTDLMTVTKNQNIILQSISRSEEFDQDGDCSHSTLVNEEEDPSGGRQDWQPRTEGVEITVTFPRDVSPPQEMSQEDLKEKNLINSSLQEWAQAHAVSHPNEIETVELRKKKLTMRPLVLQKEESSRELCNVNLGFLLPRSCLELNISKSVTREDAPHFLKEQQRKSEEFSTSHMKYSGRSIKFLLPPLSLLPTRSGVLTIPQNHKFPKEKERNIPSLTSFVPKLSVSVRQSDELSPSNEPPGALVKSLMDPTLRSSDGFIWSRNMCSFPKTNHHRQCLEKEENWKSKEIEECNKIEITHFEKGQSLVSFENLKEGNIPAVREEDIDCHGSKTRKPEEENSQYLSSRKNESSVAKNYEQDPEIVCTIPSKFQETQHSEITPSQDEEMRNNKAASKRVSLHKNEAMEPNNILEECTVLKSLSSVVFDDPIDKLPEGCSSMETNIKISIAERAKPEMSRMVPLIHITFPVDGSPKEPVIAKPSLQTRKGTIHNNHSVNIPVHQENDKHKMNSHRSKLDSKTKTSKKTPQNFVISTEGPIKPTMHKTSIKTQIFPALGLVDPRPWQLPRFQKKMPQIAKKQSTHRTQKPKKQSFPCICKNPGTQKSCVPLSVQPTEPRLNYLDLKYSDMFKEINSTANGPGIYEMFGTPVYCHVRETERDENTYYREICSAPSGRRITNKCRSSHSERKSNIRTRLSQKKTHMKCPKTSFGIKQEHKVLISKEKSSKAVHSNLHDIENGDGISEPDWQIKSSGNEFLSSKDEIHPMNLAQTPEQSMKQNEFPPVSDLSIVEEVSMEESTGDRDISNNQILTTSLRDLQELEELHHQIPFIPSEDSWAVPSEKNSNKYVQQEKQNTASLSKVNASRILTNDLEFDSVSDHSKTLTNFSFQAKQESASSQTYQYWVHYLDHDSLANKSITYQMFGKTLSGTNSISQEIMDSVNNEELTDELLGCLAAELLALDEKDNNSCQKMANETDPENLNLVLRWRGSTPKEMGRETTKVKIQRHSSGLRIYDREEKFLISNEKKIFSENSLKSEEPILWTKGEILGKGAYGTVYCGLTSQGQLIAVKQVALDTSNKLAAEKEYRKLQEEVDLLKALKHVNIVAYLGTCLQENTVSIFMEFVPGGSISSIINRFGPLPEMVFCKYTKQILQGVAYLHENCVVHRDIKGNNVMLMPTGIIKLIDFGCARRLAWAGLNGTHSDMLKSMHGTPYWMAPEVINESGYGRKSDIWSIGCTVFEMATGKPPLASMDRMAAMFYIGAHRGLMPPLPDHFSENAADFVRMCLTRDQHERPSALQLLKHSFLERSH

[6] = male, mouse, plasma, ip, 10 mg/kg
[7] = male, mouse, plasma, iv, 5 mg/kg
[8] = male, mouse, plasma, iv, 5 mg/kg, male mice
[9] = male, mouse, plasma, po, 20 mg/kg

## O=C(/N=c1\sccn1Cc1ccccc1)c1c[nH]c2ncccc12 [1 (Truli), (Z)-N-(3-benzylthiazol-2(3H)-ylidene)-1H-pyrrolo[2,3-b]pyridine-3-carboxamide, reference compound]
In vitro [1]
  remaining at 0.5 h, 1 μM: 0.18 ± 0.03%
In vitro [2]
  remaining at 0.5 h, 1 μM: 2.68 ± 0.46%
physchem
  solubility at 24 h: 140 ± 26 µg/mL (≈ 419 µM)
[3]
  HLM phase I stability (% remaining after 30 min): 2.7 ± 0.5%

## CC/C(=N\NC(=O)NCc1cccc(O)c1)c1ccc(O)c(C)c1O [3 (GA-017)]
321 protein kinases
  Number of protein kinases against which high potency was exhibited: 16

## O=C(/N=c1\sccn1Cc1ccccc1)c1c[nH]c2ncncc12 [Compound 5k, (Z)-N-(3-Benzylthiazol-2(3H)-ylidene)-7H-pyrrolo[2,3-d]pyrimidine-5-carboxamide]
In vitro [1]
  remaining at 0.5 h, 1 μM: 13.8 ± 0.55%
In vitro [2]
  remaining at 0.5 h, 1 μM: 43.1 ± 1.1%
physchem
  solubility at 24 h: 680 ± 89 µg/mL (≈ 2030 µM)
[4]; male mice, 10 mg/kg
  Ft: 131.71%
[4]; [6]
  AUC(0-inf): 11500 ± 3250 ng·h/mL
  AUC(0-t): 11400 ± 3280 ng·h/mL
  Cmax: 9510 ± 2030 ng/mL
  MRT inf: 1.27 ± 0.15 h
  MRT last: 1.14 ± 0.15 h
  Tmax: 0.5 h
  half-life: 5.24 ± 2.45 h
[4]; [7]
  AUC(0-inf): 4340 ± 2160 ng·h/mL
  AUC(0-t): 4340 ± 2170 ng·h/mL
  MRT inf: 1.49 ± 1.72 h
  MRT last: 1.43 ± 1.65 h
  Vd: 3 ± 4.42 L/kg
  half-life: 2.86 ± 1.88 h
[4]; [8]
  clearance: 23.5 mL/min/kg
[4]; [9]
  AUC(0-inf): 25800 ± 7970 ng·h/mL
  AUC(0-t): 25700 ± 8010 ng·h/mL
  Cmax: 13300 ± 2820 ng/mL
  MRT inf: 1.81 ± 0.94 h
  MRT last: 1.74 ± 0.99 h
  Tmax: 0.42 ± 0.14 h
  bioavailability: 148%
  half-life: 4.25 ± 3.57 h
[5]
  MLM phase I stability (% remaining after 30 min): 14 ± 0.6%
[3]
  Stability in human liver microsomes relative to 1, Truli: more than ten times higher stability
  HLM phase I stability (% remaining after 30 min): 43 ± 1.1%

## O=C(/N=c1\sccn1Cc1ccccc1)c1n[nH]c2ncccc12 [Compound 5l, (Z)-N-(3-Benzylthiazol-2(3H)-ylidene)-1H-pyrazolo[3,4-b]pyridine-3-carboxamide]
468 kinases; %Ctrl <1
  Number hits, S(1): 0
468 kinases; %Ctrl <10
  Number hits, S(10): 2
468 kinases; %Ctrl <35
  Number hits, S(35): 3
In vitro [1]
  remaining at 0.5 h, 1 μM: 0.69 ± 0.17%
In vitro [2]
  remaining at 0.5 h, 1 μM: 34.9 ± 1.31%
physchem
  solubility at 24 h: 290 ± 15 µg/mL (≈ 865 µM)
DMPK
  %Ctrl @ 100 nM, DMPK: 6.5 %Ctrl
YSK4
  %Ctrl @ 100 nM, YSK4: 7.1 %Ctrl
[4]; male mice, 10 mg/kg
  Ft: 74.36%
[4]; male mice, PO, 20 mg/kg
  Ft (bioavailability, F): 43.89%
[4]; [6]
  AUC(0-inf): 4390 ± 710 ng·h/mL
  AUC(0-t): 4370 ± 720 ng·h/mL
  Cmax: 7300 ± 1880 ng/mL
  MRT inf: 1.14 ± 0.21 h
  MRT last: 0.97 ± 0.12 h
  Tmax: 0.08 h
  half-life: 5.59 ± 0.88 h
[4]; [7]
  AUC(0-inf): 2960 ± 150 ng·h/mL
  AUC(0-t): 2940 ± 180 ng·h/mL
  MRT inf: 1.04 ± 0.71 h
  MRT last: 0.71 ± 0.25 h
  Vd: 1.8 ± 1.32 L/kg
  half-life: 6.56 ± 3.32 h
[4]; [8]
  clearance: 28.2 mL/min/kg
[4]; [9]
  AUC(0-inf): 5160 ± 590 ng·h/mL
  AUC(0-t): 5150 ± 590 ng·h/mL
  Cmax: 5740 ± 920 ng/mL
  MRT inf: 1.56 ± 0.1 h
  MRT last: 1.5 ± 0.1 h
  Tmax: 0.25 h
  half-life: 3.46 ± 0.33 h
[3]
  Stability in human liver microsomes relative to 1, Truli: more than ten times higher stability
  HLM phase I stability (% remaining after 30 min): 35 ± 1.3%
